Assay results as given in US20110311483A1, “CRTH2 MODULATORS” (IRONWOOD PHARMACEUTICALS, INC., priority 2010, published 2011).

Legend:
CRTH2 [1] = target: T1, CRTH2 (Homo sapiens, UniProt Q9Y5Y4); assay: DPBS CD11b Antagonist Assay (CD11b expression in eosinophils, polymorphonuclear cells challenged with 15R-Methyl-PGD2); format: cell-based; details: polymorphonuclear cells in PBS with CaCl2 and MgCl2; agonist 15R-Methyl-PGD2 10 nM; flow cytometry
T1 construct: polymorphonuclear cells (0.5 ml; 10^6/ml cells) in PBS containing 0.9 mM CaCl2 and 0.5 mM MgCl2) were preincubated with various concentrations of test compounds; endogenous in cells; host or cells: polymorphonuclear cells (eosinophils gated by side scatter and VLA-4)
T1 sequence (Q9Y5Y4 1-395): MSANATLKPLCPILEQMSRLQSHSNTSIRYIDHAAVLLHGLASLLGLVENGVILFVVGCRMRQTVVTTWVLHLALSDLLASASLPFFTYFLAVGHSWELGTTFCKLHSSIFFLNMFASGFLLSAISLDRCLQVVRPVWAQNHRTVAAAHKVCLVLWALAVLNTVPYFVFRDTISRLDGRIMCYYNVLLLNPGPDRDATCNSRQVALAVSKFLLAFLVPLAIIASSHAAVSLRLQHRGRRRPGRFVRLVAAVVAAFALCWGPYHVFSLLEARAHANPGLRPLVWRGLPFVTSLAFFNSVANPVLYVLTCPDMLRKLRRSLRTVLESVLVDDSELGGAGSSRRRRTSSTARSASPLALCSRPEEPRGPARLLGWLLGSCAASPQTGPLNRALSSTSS
Method: (§1) Human Whole Blood CD11b Antagonist Assay (modified from Nicholson, et al. Pulmonary Pharmacology and Therapeutics: 20 (2007); 52-59). The potential CRTH2 antagonist activity of certain compounds was tested in human whole blood using an assay that tests the ability of the compounds to block the CD11b expression in eosinophils by 15-R-methyl-PGD2. A CRTH2 antagonist should block CD11b expression by subsequently added 15-Methyl-PGD2. Human whole blood (200 μL) was incubated at 37° C. for 10 minutes in the presence of various concentrations of test compounds before being challenged with the agonist 15R-Methyl-PGD2 (10 nM). Reactions were terminated by the addition of ice-cold PBS+0.5% BSA+2 m MEDTA (1 mL) and centrifugation (300×g for 5 minutes at 4° C.) Cells were then incubated at 4° C. for 10 min in the presence of human IgG. Cells were then incubated for 30-45 min with a mixture of PE-Cy5-labeled mouse anti-human CD16 (10 μl; BD Biosciences) and FITC-labeled mouse anti-human CD11b (10 μL; Beckman Coulter.) After rinsing (1 mL ice-cold PBS+0.5% BSA+2 mMEDTA), red blood cells were lysed by the addition of 1 mL ice-cold H2O to the cell pellet for 30 sec-1 min immediately followed by the addition of 3.5% NaCl (300 μL.) Cells were then rinsed (2×−1 ml ice cold PBS+0.5% BSA+2 m MEDTA) and fixed in PBS containing 1% formaldehyde. The distribution of fluorescence intensities was measured by flow cytometry. Eosinophils were gated out on the basis of their granularity (high side scatter) and absence of CD-16. CD11b was then measured on this eosinophil population on the basis of fluorescence due to FITC. DPBS CD11b Antagonist Assay. The potential CRTH2 antagonist activity of certain compounds was tested using a CD11b expression assay using essentially the method described by Monneret et al. (J Pharmacol Exp Ther 304:349-55, 2003). Briefly, polymorphonuclear cells (0.5 ml; 10^6/ml cells) in PBS containing 0.9 mM CaCl2 and 0.5 mM MgCl2) were preincubated with various concentrations of test compounds at room temperature for 10 minutes before they were challenged with the agonist 15R-Methyl-PGD2 (10 nM). The incubations were terminated by the addition of ice-cold FACSFlow (BD Biosciences; Cat# 342003) and centrifugation (400 g for 5 minutes at 4° C.). The cells were then incubated for 30 minutes at 4° C. with a mixture of PE-labeled mouse anti-human VLA-4 (5 μl; BD Biosciences) and FITC-labeled mouse anti-human CD11b (10 μl; Beckman Coulter). The cells were then incubated with Optilyse C (0.25 ml; Beckman Coulter) for 15 minutes, centrifuged, and then fixed in PBS (0.4 ml; calcium and magnesium free) containing 1% formaldehyde. The distribution of fluorescence intensities among 60,000 cells was measured by flow cytometry. Eosinophils were gated out on the basis of their granularity (high side scatter) and labeling with VLA-4 (PE fluorescence). CD11b was then measured in the eosinophil region on the basis of fluorescence due to FITC. All data were corrected for the value obtained for the corresponding isotope control antibody.

CRTH2 [2] = target: T1, CRTH2; assay: Human Whole Blood CD11b Antagonist Assay (CD11b expression in eosinophils challenged with 15R-Methyl-PGD2); format: cell-based; details: agonist 15R-Methyl-PGD2 10 nM, flow cytometry
Method: as §1, with “The cells were then incubated with Optilyse C (0.25 ml; Beckman Coulter) for 15 minutes, centrifuged, and then fixed in PBS (0.4 ml; calcium and magnesium free) containing 1% formaldehyde.” left out, “All data were corrected for the value obtained for the corresponding isotope control antibody.” left out

Row | IC50 (CRTH2 [1]) | IC50 (CRTH2 [2]) | SMILES
1 | > 0.6 µM |  | CCOC(=O)C(C)n1c(C)c(Cc2ccccc2S(=O)(=O)N2CCCC2)c2c1CC(C)(C)CC2=O (stereo not drawn) [Compound I-5, Ethyl 2-(2,6,6-trimethyl-4-oxo-3-(2-(pyrrolidin-1-ylsulfonyl)benzyl)-4,5,6,7-tetrahydro-1H-indol-1-yl)propanoate]
2 | < 0.01 µM | 0.01 to 0.1 µM | CCN(C)S(=O)(=O)c1ccccc1Cc1c2c(n(CC(=O)O)c1C)CC(C)(C)CC2=O [Compound I-3, 2-(3-(2-(N-ethyl-N-methylsulfamoyl)benzyl)-2,6,6-trimethyl-4-oxo-4,5,6,7-tetrahydro-1H-indol-1-yl)acetic acid]
3 | < 0.01 µM | < 0.01 µM | Cc1c(Cc2ccccc2S(=O)(=O)N2CCCCC2)c2c(n1CC(=O)O)CC(C)(C)CC2=O [Compound I-4, 2-(2,6,6-Trimethyl-4-oxo-3-(2-(piperidin-1-ylsulfonyl)benzyl)-4,5,6,7-tetrahydro-1H-indol-1-yl)acetic acid]
4 | 0.1 to 0.6 µM | > 0.6 µM | CCOC(=O)Cn1c(C)c(Cc2ccccc2S(=O)(=O)N(C)CC)c2c1CC(C)(C)CC2=O [Compound I-2, Ethyl 2-(3-(2-(N-ethyl-N-methylsulfamoyl)benzyl)-2,6,6-trimethyl-4-oxo-4,5,6,7-tetrahydro-1H-indol-1-yl)acetate]
5 | 0.1 to 0.6 µM | 0.1 to 0.6 µM | Cc1c(C(=O)c2ccccc2S(=O)(=O)N2CCOCC2)c2c(n1CC(=O)O)CCC(C)(C)C2 [Compound I-1, 2-(2,5,5-Trimethyl-3-(2-(morpholinosulfonyl)benzoyl)-4,5,6,7-tetrahydro-1H-indol-1-yl)acetic acid]
